Results on twelve molecules are retold here after article PMC6561338 (Organic & biomolecular chemistry, 2018).

Where two headings read alike, the source gives them in different places.

The target in one experiment is recombinant human S1PR1 (Homo sapiens, UniProt P21453). Nature of the experiment: [32P]S1P competitive binding assay, S1PR1. As to conditions: for fold decrease of S1PR1 binding potency compared to 10a: ratio of IC50 values versus 10a.
For the next experiment, the target named is recombinant human S1PR2 (Homo sapiens, UniProt O95136). The experiment in a line: [32P]S1P competitive binding assay, S1PR2.
Sequence of recombinant human S1PR2 (O95136 whole entry): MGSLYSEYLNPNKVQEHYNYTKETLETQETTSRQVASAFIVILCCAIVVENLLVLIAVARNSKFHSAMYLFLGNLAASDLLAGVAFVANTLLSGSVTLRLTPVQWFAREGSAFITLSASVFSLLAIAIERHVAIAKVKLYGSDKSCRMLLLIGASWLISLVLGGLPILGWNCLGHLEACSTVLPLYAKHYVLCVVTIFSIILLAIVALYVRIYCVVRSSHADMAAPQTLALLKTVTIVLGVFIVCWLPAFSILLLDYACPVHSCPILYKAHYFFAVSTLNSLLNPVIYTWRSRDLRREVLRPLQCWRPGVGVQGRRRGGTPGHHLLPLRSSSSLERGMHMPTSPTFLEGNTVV
For a further experiment, the target named is T1, recombinant human S1PR4 (Homo sapiens, UniProt O95977).
T1 sequence (O95977 1-384): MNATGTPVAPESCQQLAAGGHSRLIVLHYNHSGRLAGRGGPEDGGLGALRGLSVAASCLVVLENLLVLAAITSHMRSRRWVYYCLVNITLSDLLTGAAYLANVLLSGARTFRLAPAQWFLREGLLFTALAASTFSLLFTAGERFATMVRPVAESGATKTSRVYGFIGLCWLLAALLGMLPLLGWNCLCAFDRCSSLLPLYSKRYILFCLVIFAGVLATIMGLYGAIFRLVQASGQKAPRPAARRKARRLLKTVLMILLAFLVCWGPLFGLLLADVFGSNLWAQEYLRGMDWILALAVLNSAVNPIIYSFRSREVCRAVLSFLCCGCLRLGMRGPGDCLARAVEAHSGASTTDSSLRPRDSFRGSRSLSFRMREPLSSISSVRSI
Nature of the experiment: [32P]S1P competitive binding assay, S1PR4. To be noted: read-out: IC50 S1PR4; competition against [32P]S1P, recombinant human S1PR4 membranes; mean ± SD.

Another experiment concerns the target recombinant human S1PR3 (Homo sapiens, UniProt Q99500). The experiment in a line: [32P]S1P competitive binding assay, S1PR3.
For another experiment, the target named is recombinant human S1PR5 (Homo sapiens, UniProt Q9H228). The experiment in a line: [32P]S1P competitive binding assay, S1PR5. To be noted: read-out: IC50 S1PR5; competition against [32P]S1P, recombinant human S1PR5 membranes; mean ± SD.
Sequence of recombinant human S1PR5 (Q9H228 whole entry): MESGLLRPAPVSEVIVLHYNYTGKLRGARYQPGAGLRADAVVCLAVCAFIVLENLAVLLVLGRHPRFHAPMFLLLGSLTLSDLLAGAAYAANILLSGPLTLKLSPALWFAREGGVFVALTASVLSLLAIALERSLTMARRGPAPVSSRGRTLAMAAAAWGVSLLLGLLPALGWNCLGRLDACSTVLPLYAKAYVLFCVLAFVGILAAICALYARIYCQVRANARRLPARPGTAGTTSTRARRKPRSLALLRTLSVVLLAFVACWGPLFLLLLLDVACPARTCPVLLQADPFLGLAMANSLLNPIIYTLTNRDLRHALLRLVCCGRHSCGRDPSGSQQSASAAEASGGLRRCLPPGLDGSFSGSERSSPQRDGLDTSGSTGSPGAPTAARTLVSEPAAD
The mark [1] stands for this setting: read-out: IC50 S1PR1, competition against [32P]S1P, cell membranes expressing recombinant human S1PR1, mean ± SD, at least 3 independent experiments in duplicate.

The IC50 is the concentration needed to halve the response being measured.

Sequence of recombinant human S1PR3 (Q99500 whole entry): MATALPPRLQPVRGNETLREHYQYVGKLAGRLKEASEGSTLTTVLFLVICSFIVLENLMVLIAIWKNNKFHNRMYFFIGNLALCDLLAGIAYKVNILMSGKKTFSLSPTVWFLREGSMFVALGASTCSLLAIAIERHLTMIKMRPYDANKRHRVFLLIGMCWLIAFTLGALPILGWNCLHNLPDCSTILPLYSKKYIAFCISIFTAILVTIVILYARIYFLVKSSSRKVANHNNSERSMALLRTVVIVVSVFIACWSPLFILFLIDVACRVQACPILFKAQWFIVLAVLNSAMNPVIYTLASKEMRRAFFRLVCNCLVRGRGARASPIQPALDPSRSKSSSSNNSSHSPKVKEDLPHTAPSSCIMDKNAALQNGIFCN
Sequence of recombinant human S1PR1 (P21453 whole entry): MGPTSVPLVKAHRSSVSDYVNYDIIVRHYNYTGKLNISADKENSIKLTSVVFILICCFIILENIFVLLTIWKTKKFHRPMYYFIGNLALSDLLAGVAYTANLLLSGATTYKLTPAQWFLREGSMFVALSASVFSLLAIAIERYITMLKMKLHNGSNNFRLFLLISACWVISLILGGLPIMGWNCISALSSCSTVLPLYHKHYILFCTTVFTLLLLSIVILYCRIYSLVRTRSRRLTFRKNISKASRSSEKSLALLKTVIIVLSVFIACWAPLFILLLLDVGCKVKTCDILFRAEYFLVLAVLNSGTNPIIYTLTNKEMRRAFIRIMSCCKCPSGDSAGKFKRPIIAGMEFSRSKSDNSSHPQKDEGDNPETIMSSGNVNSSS

With `CN(Cc1ccc(-c2noc(-c3ccc(OCCF)c(C(F)(F)F)c3)n2)cc1)CC(O)CO` (racemic) [(±)-13a, (±)-3-((4-(5-(4-(2-Fluoroethoxy)-3-(trifluoromethyl)phenyl)-1,2,4-oxadiazol-3-yl)benzyl)(methyl)amino)propane-1,2-diol], the IC50 at recombinant human S1PR1 (setting [1]) is 39.9 nM. The same measure, in the same setting: the same measure for `OCC(O)COCc1ccc(-c2noc(-c3ccc(OCCF)c(C(F)(F)F)c3)n2)cc1` (racemic) [(±)-20b, (±)-3-((4-(5-(4-(2-Fluoroethoxy)-3-(trifluoromethyl)phenyl)-1,2,4-oxadiazol-3-yl)benzyl)oxy)propane-1,2-diol]: 23.8 nM.

Consider `OCC(O)c1ccc(-c2noc(-c3ccc(OCCF)c(C(F)(F)F)c3)n2)cc1` (racemic) [(±)-24, (±)-1-(4-(5-(4-(2-Fluoroethoxy)-3-(trifluoromethyl)phenyl)-1,2,4-oxadiazol-3-yl)phenyl)ethane-1,2-diol], for which the IC50 on recombinant human S1PR2 (read-out: IC50 S1PR2, competition against [32P]S1P, recombinant human S1PR2 membranes, mean ± SD) was over 1000 nM; on recombinant human S1PR1 (setting [1]), under 20 nM; on recombinant human S1PR4, over 1000 nM; on recombinant human S1PR3 (read-out: IC50 S1PR3, competition against [32P]S1P, recombinant human S1PR3 membranes, mean ± SD), over 1000 nM; on recombinant human S1PR5 it was over 1000 nM. Regarding `OCc1ccc(-c2noc(-c3ccc(OCCF)c(C(F)(F)F)c3)n2)cc1` [10a, (4-(5-(4-(2-Fluoroethoxy)-3-(trifluoromethyl)phenyl)-1,2,4-oxadiazol-3-yl)phenyl)methanol], the half-maximal inhibitory concentration (IC50) at recombinant human S1PR2 and at recombinant human S1PR3 was over 1000 nM throughout. As to `N#Cc1cc(-c2nc(-c3ccc(CO)cc3)no2)ccc1OCCF` [10b, 2-(2-Fluoroethoxy)-5-(3-(4-(hydroxymethyl)phenyl)-1,2,4-oxadiazol-5-yl)benzonitrile], at recombinant human S1PR1, the “fold decrease of S1PR1 binding potency compared to 10a” value was found to be 2.3 fold.

Turning to `OCc1ccc(-c2noc(-c3ccc(OCCF)cc3)n2)cc1` [10c, (4-(5-(4-(2-Fluoroethoxy)phenyl)-1,2,4-oxadiazol-3-yl)-phenyl)-methanol], the IC50 at recombinant human S1PR1 was over 1000 nM. Turning to `CN(CCO)Cc1ccc(-c2noc(-c3ccc(OCCF)c(C(F)(F)F)c3)n2)cc1` [13b, 2-((4-(5-(4-(2-Fluoroethoxy)-3-(trifluoromethyl)phenyl)-1,2,4-oxadiazol-3-yl)benzyl)(methyl)amino)ethan-1-ol], the IC50 on recombinant human S1PR1 was found to be 38 nM. As for `OCCNCc1ccc(-c2noc(-c3ccc(OCCF)c(C(F)(F)F)c3)n2)cc1` [13d, 2-((4-(5-(4-(2-Fluoroethoxy)-3-(trifluoromethyl)phenyl)-1,2,4-oxadiazol-3-yl)benzyl)amino)ethan-1-ol], at recombinant human S1PR1, the IC50 is 48.2 nM. On to `OCCOCc1ccc(-c2noc(-c3ccc(OCCF)c(C(F)(F)F)c3)n2)cc1` [17a, 2-((4-(5-(4-(2-Fluoroethoxy)-3-(trifluoromethyl)phenyl)-1,2,4-oxadiazol-3-yl)benzyl)oxy)ethan-1-ol], for which the IC50 on recombinant human S1PR2 and on recombinant human S1PR3 was over 1000 nM each time. As for `OCCOCCOCc1ccc(-c2noc(-c3ccc(OCCF)c(C(F)(F)F)c3)n2)cc1` [17b, 2-(2-((4-(5-(4-(2-Fluoroethoxy)-3-(trifluoromethyl)phenyl)-1,2,4-oxadiazol-3-yl)benzyl)oxy)ethoxy)ethan-1-ol], the IC50 at recombinant human S1PR2 and at recombinant human S1PR3 was over 1000 nM in each case. Turning to `OCCOCCOCCOCc1ccc(-c2noc(-c3ccc(OCCF)c(C(F)(F)F)c3)n2)cc1` [17c, 2-(2-(2-((4-(5-(4-(2-Fluoroethoxy)-3-(trifluoromethyl)phenyl)-1,2,4-oxadiazol-3-yl)benzyl)oxy)ethoxy)ethoxy)ethan-1-ol], at recombinant human S1PR1, the “fold decrease of S1PR1 binding potency compared to 10a” value is given as “approximately 16 fold”. For the molecule `OCCOc1ccc(-c2noc(-c3ccc(OCCF)c(C(F)(F)F)c3)n2)cc1` [20a, 2-(4-(5-(4-(2-Fluoroethoxy)-3-(trifluoromethyl)phenyl)-1,2,4-oxadiazol-3-yl)phenoxy)ethan-1-ol], on recombinant human S1PR1, the IC50 turned out to be 56.6 nM.
